Tests used:
[1] = target: T1, FAP-expressing human WI-38 fibroblasts (Homo sapiens, UniProt Q12884); test: Competitive FACS binding assay (displacement of Cy5-labeled FAP inhibitor 3BP-2935); settings: 3 nM Cy5-labeled 3BP-2935, 4°C, 1 hour
T1 construct: FAP-expressing human WI-38 fibroblasts (ECACC 90020107) were cultured in EMEM; host or cells: WI-38 human fibroblasts
T1 sequence (Q12884 1-760): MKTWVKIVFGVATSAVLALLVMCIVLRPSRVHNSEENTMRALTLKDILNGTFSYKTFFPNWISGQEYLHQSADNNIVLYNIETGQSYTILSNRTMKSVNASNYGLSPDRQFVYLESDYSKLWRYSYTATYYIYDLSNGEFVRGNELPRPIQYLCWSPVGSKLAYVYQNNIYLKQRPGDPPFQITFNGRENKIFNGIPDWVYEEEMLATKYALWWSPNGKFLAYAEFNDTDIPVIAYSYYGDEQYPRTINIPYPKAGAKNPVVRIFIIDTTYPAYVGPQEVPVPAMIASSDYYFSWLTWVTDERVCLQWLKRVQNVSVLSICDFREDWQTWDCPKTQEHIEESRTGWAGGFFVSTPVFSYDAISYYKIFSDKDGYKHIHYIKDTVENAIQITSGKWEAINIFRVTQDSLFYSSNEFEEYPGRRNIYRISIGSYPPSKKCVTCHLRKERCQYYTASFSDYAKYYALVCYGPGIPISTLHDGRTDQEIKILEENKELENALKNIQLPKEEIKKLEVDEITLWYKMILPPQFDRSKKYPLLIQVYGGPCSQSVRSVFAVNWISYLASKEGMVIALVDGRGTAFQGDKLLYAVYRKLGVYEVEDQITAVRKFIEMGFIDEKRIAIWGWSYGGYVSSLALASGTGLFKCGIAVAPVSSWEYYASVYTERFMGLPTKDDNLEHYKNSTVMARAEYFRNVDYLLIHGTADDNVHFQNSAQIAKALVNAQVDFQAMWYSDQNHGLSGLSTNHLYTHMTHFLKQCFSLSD

Human recombinant FAP [2] = target: T2, Human recombinant FAP (Homo sapiens, UniProt Q12884); test: FRET-based FAP protease activity assay (human); format: biochemical; design: purchased R&D systems 3715-SE; settings: FRET-peptide substrate, 37°C; for IC50: read-out: pIC50 (Activity) (converted)
T2 sequence (Q12884 1-760): T1 sequence (Q12884 1-760)
Method: In order to determine the inhibitory activity a FRET-based FAP protease activity assay was established.
25 µL of a 30 µM substrate solution, diluted in assay buffer, was added. […] Four parameter logistic (4PL) curve fitting and pIC50 calculations were performed using ActivityBase software (IDBS).

Human recombinant FAP [3] = target: T2, Human recombinant FAP; test: Surface plasmon resonance assay (Biacore T200, single cycle kinetics); format: binding; settings: SPR, 25°C; for pKD (Biacore) / Kd: 1:1 Langmuir binding model; for HL [min] (Biacore): half-life; for Kd: read-out: pKD (Biacore) (converted)
Procedure, shortened: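 Human recombinant FAP (20 µg/mL) was captured on anti-FAP antibody immobilized on a CM5 chip, and compounds were run in single-cycle kinetics at 25 °C in HBST with 0.1% DMSO, starting from 500 nM. Sensorgrams were corrected against a reference flow cell and for baseline drift. kon, koff, KD and t1/2 came from a 1:1 Langmuir fit, with pKD = −log KD.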

Structure (SMILES)	pIC50 (FACS) [1]	pIC50 (Activity) (Human recombinant FAP [2])	pKD (Biacore) (Human recombinant FAP [3])	HL [min] (Biacore) (Human recombinant FAP [3])	IC50 [1] [nM]	IC50 (Human recombinant FAP [2]) [nM]	Kd (Human recombinant FAP [3]) [nM]
N#C[C@@H]1CCCN1C(=O)CNC(=O)c1ccnc2ccc(-c3ccc(C(=O)NCCCNC(=O)CN4CCN(CC(=O)O)CCN(CC(=O)O)CCN(CC(=O)O)CC4)cc3)cc12	8.7	9	10.2	160			
O=C(O)CN1CCN(CC(=O)O)CCN(CC(=O)N2CCN(CCNC(=O)c3cccc(-c4ccc5nccc(C(=O)NCC(=O)N6CCC[C@H]6C(=O)c6nc7ccccc7o6)c5c4)c3)CC2)CCN(CC(=O)O)CC1 [drawing 353]	8.5	8.6	10.1	289.5			
O=C(O)CN1CCN(CC(=O)O)CCN(CC(=O)N2CCN(CCNC(=O)c3ccc(-c4ccc5nccc(C(=O)NCC(=O)N6CCC[C@H]6C(=O)c6nc7ccccc7o6)c5c4)cc3)CC2)CCN(CC(=O)O)CC1 [drawing 354]	7.9	8.4	9.1	10.5			
O=C(O)CN1CCN(CC(=O)O)CCN(CC(=O)N2CCN(CCNC(=O)c3ccc(-c4ccc5c(C(=O)NCC(=O)N6CCC[C@H]6C(=O)c6nc7ccccc7o6)ccnc5c4)cc3)CC2)CCN(CC(=O)O)CC1 [drawing 355]	8.4	8.7	>11	>500			
O=C(O)CN1CCN(CC(=O)O)CCN(CC(=O)N2CCN(CCNC(=O)c3ccc(-c4ccc5nccc(C(=O)NCC(=O)N6C[C@@H](F)C[C@H]6C(=O)c6nc7ccccc7o6)c5c4)cc3)CC2)CCN(CC(=O)O)CC1 [drawing 360]	7.6	8.5	9	4.8			
O=C(NCC(=O)N1CCC[C@H]1C(=O)c1nc2ccccc2o1)c1ccnc2ccccc12				3.7	6.31	1.58	0.501
CC(C)(C)c1nnc(C(=O)[C@@H]2CCCN2C(=O)CNC(=O)c2ccnc3ccccc23)o1				0.4	15.8	3.98	2.51
N#C[C@@H]1CC(F)(F)CN1C(=O)CNC(=O)c1cc[n+]([O-])c2ccc(OCCCN3CCN(C(=O)CN4CCN(CC(=O)O)CCN(CC(=O)O)CCN(CC(=O)O)CC4)CC3)cc12	8.5	9	9.8	19			
O=C(O)CN1CCN(CC(=O)O)CCN(CC(=O)N2CCN(CCCOc3ccc4nccc(C(=O)NCC(=O)N5CCC[C@H]5C(=O)c5nc6ccccc6o5)c4c3)CC2)CCN(CC(=O)O)CC1 [drawing 357]	8.6	8.9	>11	>500			
O=C(O)CN1CCN(CC(=O)O)CCN(CC(=O)N2CCN(CCCOc3ccc4nccc(C(=O)NCC(=O)N5CC(F)(F)C[C@H]5C(=O)c5nc6ccccc6o5)c4c3)CC2)CCN(CC(=O)O)CC1	7.9	8.6	8.6	57			
CS(=O)(=O)c1ccc(-c2ccc3c(C(=O)NCC(=O)N4CCC[C@H]4C#N)ccnc3c2)cc1 [drawing 290]				4	6.31	1.58	0.631
N#C[C@@H]1CC(F)(F)CN1C(=O)CNC(=O)c1ccnc2ccc(-c3ccc(C(=O)NCCCNC(=O)CN4CCN(CC(=O)O)CCN(CC(=O)O)CCN(CC(=O)O)CC4)nc3)cc12	8.8	9.1	>11	>500			
CS(=O)(=O)c1ccc(-c2ccc3nccc(C(=O)NCC(=O)N4CCC[C@H]4C#N)c3c2)cc1				12	3.98	0.631	0.158
O=C(O)CN1CCN(CC(=O)O)CCN(CC(=O)N2CCN(CCNC(=O)c3cccc(-c4ccc5c(C(=O)NCC(=O)N6CCC[C@H]6C(=O)c6nc7ccccc7o6)ccnc5c4)c3)CC2)CCN(CC(=O)O)CC1 [drawing 352]	8.4	8.7	>11	>500			
CS(=O)(=O)c1cccc(-c2ccc3c(C(=O)NCC(=O)N4CC(F)(F)C[C@H]4C#N)ccnc3c2)c1 [drawing 289]				29.5	2	0.794	0.0794

From patent publication EP4122499A1, “FIBROBLAST ACTIVATION PROTEIN INHIBITORS AND USE THEREOF” (3B Pharmaceuticals GmbH, priority 2021, dated 2023)
